From patent US6379959B1, “Metalocarboxypeptidase inhibitors and derived molecules used as antitumor agents” (Universitat Autonoma de Barcelona, priority 1996, dated 2002) come the findings set out here.

Holding throughout (type): cell-based
Assay [1] concerns human pancreatic adenocarcinoma cell line Panc-1. The assay can be described thus: Proliferation test with tetrazolium salts, Panc-1 in medium with serum, 10 days. On the procedure:
It was performed the same kind of test which had been carried out for the Capan-1 cell line but with Panc-1, another human pancreatic adenocarcinoma cell line. We are referring to a human pancreatic adenocarcinoma ATCC nr. CRL 1469, established by Lieber, M. et al. (1975) In. J. Cancer, 15: 741-747. Of ductal origin, it is not highly differentiated.
As for the Capan-1 cell line, two types of experiments were carried out with and without bovine fetal serum. The protocol followed for the test, growing in RPMI plus bovine fetal serum, was the same as that used with Capan-1 cell line but with small variations, given the difference in the duplication times between the two lines. The tests were carried out with the native PCI (wtPCI) and with the mutant PCI (PCIdelYVG). The protocol is detailed as follows:
1. In a culture plate with 96 wells, 2,000 cells were seed in 30 wells for the tests with wtPCI and in 36 for the tests with PCIdelYVG. From these 30 or 36:
In 6 wells (control), 200 μL of full medium (RPMI+10%FBS) without wtPCI or PCIdelYVG/mL were added. […]
2. The cells were kept in an incubator at 37° C., 87% of relative humidity and 10% of CO2. The old medium was sucked out with a Pasteur pipette. Medium free of wtPCI or PCIdelYVG was added to the control wells and to the others a medium was added with identical concentration of wtPCI or PCIdelYVG.
3. After 10 days, the cell growth was evaluated per well, according to the method detailed in the protocol of Section 4.B.2.a.

Assay [2] has the same test system. The following applies: SFM, 72 h.
The test system of assay [3] is human pancreatic adenocarcinoma cell line MDAPanc-3. As to the kind of experiment: Proliferation test by recount of the cells number (hemocytometer), MDAPanc-3. How it is done: In this assay and with the aim of determining whether the presence in the culture medium produces some effect on the growth in vitro of the cell lines, the final number of the cells when the control reaches monolayer is determined, in the presence and in the absence of the inhibitor. The calculation is made by direct recount of the number of cells using trypsinization and subsequent recount in a hemocytometer. The detailed method is as follows:
1. In each of the three culture flasks of 25 cm^2, 5×10^5 cells are seed and a total volume of the culture medium is added (DMEM with a 10% of fetal bovine serum or synthetic serum, according to the test) of 5 mL:
A first flask is used as control and no PCI is added to it.
PCI is added to a second flask some hours after the culture has started and once the cells have adhered to the bottom of the flask. This type of test is defined as postadherence test.
PCI is added to a third flask at the same time as the culture has begun, before the cells have had time to adhere to the bottom of the flask, thus constituting the preadherence test.
2. The cells are maintained in an incubator at 37° C., 87% of relative humidity and 10% of CO2. The medium contained in the flasks is changed every 3-4 days. Medium free of PCI is added to the control flask; medium with PCI is added to the other two.
3. When the culture of one of the flasks reaches a state of monolayer (or after a specific number of days), we proceed to count the number of cells in each one of them. Firstly and in order to do that, the cells are trypsinized using the following steps:
Immediately after, the recount of the number of cells is done. To do that, an aliquot of 10 μL is taken and it is placed in an eppendorf tube. 10 μL of a solution of trypan blue dye is added. Then, it is well mixed and two aliquots of 10 μL of the mixture are taken and placed in the two zones of an hemocytometer which is placed in the inverted microscope.
The live cells are observed as being refringent and clear, while the dead ones are observed as opaque and dyed blue, for the staining is only able to penetrate dead cells. The total number of cells of the W zone of the hemocytometer is counted, differentiating between the live and the dead ones. Based on this recount, the total number of cells that was in the initial suspension (which will be the total number of cells that was in the culture) is calculated by multiplying the number obtained by 2×10^4. The viability (in %) is calculated by dividing the number of live cells by the total number of counted cells and multiplying it by 100.
The effect produced by the presence of PCI in the medium is expressed as % of cell growth inhibition, which is calculated according to the formula [formula] […]

Where two headings read alike, the source gives them in different places. Positions of bridges follow the written chain, without caps; N, C: chain ends. No end group written: not given here.

For “PCI: potato carboxypeptidase inhibitor, isoform IIa, obtained by recombinant DNA techniques in E. coli (SEQ ID NO.2) (EQHADPICNKPCKTHDDCSGAWFCQACWNSARTCGPYVG; disulfide 12-27, 18-34, 8-24)”, the “Growth (Percentage in relation to the average of the controls)” value stood at 90.85% in assay [1] (0.1 mg/mL wtPCI, RPMI+10%FBS); 84.55% in assay [1] (1 mg/mL wtPCI); 82.22% in assay [1] (10 mg/mL wtPCI); 71.14% in assay [1] (50 mg/mL wtPCI); 15.81% in assay [2] (EGF 10 ng/mL + 50 mg/mL wtPCI); 26.34% in assay [2] (Insulin 5 mg/mL + 50 mg/mL wtPCI). Also, the level of inhibition in assay [1] (concentration of 0.1 μg/mL) came out at 9.15%; in assay [1] (concentration of 50 μg/mL), 28.86%. Besides, the “Percentage of Growth Inhibition” value in assay [3] (5 mg PCI/mL, Postadhesion) came to 19.1 ± 14.5%; in assay [3] (5 mg PCI/mL, Preadhesion, DMEM+10%BMS until controls confluent), 20.7 ± 6.9%; in assay [3] (10 mg PCI/mL, Postadhesion), 14.3 ± 12.4%; in assay [3] (10 mg PCI/mL, Preadhesion) it was 14.6 ± 14.2%.
